Type in all cases: cell-based
One experiment concerns E. Coli JT39. The experiment is described as follows: MIC by standard microtitre technique (dilution in tryptone soy broth). The settings on record: Escherichia coli, substance alone. The method, then:
(§1) By a standard microtitre technique the MIC values for ampicillin alone, ampicillin and 9-N-(2-N-morpholinoethyl)aminodeoxyclavulanic acid and 9-N-(2-N-morpholinoethyl)aminodeoxyclavulanic acid alone were determined.
(§2) MIC μg/ml (dilution in tryptone soy broth)
(§3) By a standard microtitre technique the MIC values for ampicillin alone, ampicillin and 9-N-[3'-N-(2"-pyrrolidinoyl)propyl]aminodeoxyclavulanic acid and 9-N[3'-N-(2"-pyrrolidinoyl)propyl]aminodeoxyclavulanic acid alone were determined.

The next experiment relates to Kleb Aergenes E70. The experiment is described as above. The settings on record: Klebsiella aerogenes, substance alone. The method, then: as §1, §2, §3
Experiment [1] relates to Staph. Aureus Russell. The experiment is described as above. The settings on record: Staphylococcus aureus, substance alone. The method, then:
as §1, §2, §3

For experiment [2], the system named is Staph. Aureus Russell. The experiment is described as follows: Antibacterial activity, MIC (dilution in blood agar-heavy inoculum). The conditions noted are these: Staphylococcus aureus. From the text:
(§4) Antibacterial activity of 9-N-[3'-N-(2"-pyrrolidinonyl)propyl]aminodeoxyclavulanic acid
(§5) Dilution in blood agar-heavy inoculum

Another experiment concerns Staph. aureus Oxford. The experiment is described as above. The conditions noted are these: Staphylococcus aureus.
Description: as §4, §5

The test system of a further experiment is Strep. pneumoniae. The description is as above. The settings on record: Streptococcus pneumoniae.
Description: as §4, §5

In a further experiment the test system is Strep. pyogenes. Described as above. The conditions noted are these: Streptococcus pyogenes.
Description: as §4, §5

Data on 3 molecules can be found in patent US4343807A, “Derivatives of clavulanic acid, a process for their preparation and their use” (Beecham Group Limited, priority 1979, dated 1982).

Converted amounts (≈) assume the structure as drawn.

Broadly, the MIC is the lowest concentration that inhibits growth of the organism. Low values mean a more susceptible organism, high ones a less susceptible organism. Regarding `O=C(O)[C@H]1/C(=C/CNCCCN2CCCC2=O)O[C@@H]2CC(=O)N21` [Example 2, 9-N[3'-N-(2"-Pyrrolidinonyl)propyl]aminodeoxyclavulanic acid], the MIC in the experiment with E. Coli JT39 stood at 62 µg/mL (≈ 192 µM); in the experiment with Kleb Aergenes E70, 500 µg/mL (≈ 1550 µM); against Staph. Aureus Russell [1], 16 µg/mL (≈ 49.5 µM); in the experiment on Staph. Aureus Russell [2], 5 µg/mL (≈ 15.5 µM); in the experiment on Staph. aureus Oxford it was 5 µg/mL (≈ 15.5 µM); in the experiment on Strep. pneumoniae, 5 µg/mL (≈ 15.5 µM). The MIC against Strep. pyogenes turned out to be 1.25 µg/mL (≈ 3.87 µM).

As for `CC1(C)S[C@@H]2[C@H](NC(=O)[C@H](N)c3ccccc3)C(=O)N2[C@H]1C(=O)O` [Ampicillin, reference compound], the values for the MIC with E. Coli JT39, with Kleb Aergenes E70 and in the experiment on Staph. Aureus Russell [1] were above 2000 µg/mL, 1000 µg/mL (≈ 2860 µM) and 1000 µg/mL (≈ 2860 µM), respectively.

`O=C(O)[C@H]1/C(=C/CNCCN2CCOCC2)O[C@@H]2CC(=O)N21` [Example 1, 9-N-(2'-N-Morpholinoethyl)aminodeoxyclavulanic acid]: the minimal inhibitory concentration (MIC) in the experiment on E. Coli JT39 was found to be 62 µg/mL (≈ 199 µM); in the experiment with Kleb Aergenes E70, 500 µg/mL (≈ 1610 µM); in the experiment on Staph. Aureus Russell [1] it was 16 µg/mL (≈ 51.4 µM).
